This is an account of results in US20150376654A1 (priority 2011, published 2015).

Read-outs that look alike come from different tables or passages of the source.

In assay [1] the test system is Clostridium ljungdahlii DSM13583. Particulars: 50 g/L ethanol, serum bottle studies. The protocol: (§1) The ethanol tolerance of three acetogenic strains Clostridium ljungdahlii DSM13583, Clostridium autoethanogenum DSM10061, and C. autoethanogenum DSM23693 was tested in serum bottles.
(§2) Ethanol was added in various concentrations to an active growing culture at 37° C. in PETC medium (Table 1) with 30 psi steel mill gas as substrate. The media was prepared by using standard anaerobic techniques (Hungate R E. A roll tube method for cultivation of strict anaerobes, In Norris J R and Ribbons D W (eds.), Methods in Microbiology, vol. 3B. Academic Press, N Y, 1969: 117-132; Breznak J A and Costilow R N, Physicochemical factors in growth, In Gerhardt P (ed.), Methods for general and molecular bacteriology. American Society for Microbiology, Washington, 1994: 137-154). […] Slightly acidified water was used (0.005 M H2SO4) as mobile phase with a flow rate of 0.7 ml/min. To remove proteins and other cell residues, 400 μl samples were mixed with 100 μl of a 2% (w/v) 5-Sulfosalicylic acid and centrifuged at 14,000×g for 3 min to separate precipitated residues. 10 μl of the supernatant were then injected into the HPLC for analyses.

Assay [2] concerns Clostridium autoethanogenum DSM10061. The protocol:
as §1, §2

Assay [3] has as its system Clostridium autoethanogenum DSM23693. The protocol: as §1, §2
The subject of another assay is majority of bacteria. The conditions noted are these: cited from earlier work.
In assay [4] the test system is C. autoethanogenum DSM23693 wild-type (WT), parental. Particulars: PETC media, 30 psi steel mill gas. The procedure: (§3) To investigate whether overexpression of GroESL enhances ethanol tolerance of C. autoethanogenum DSM23693, both wild-type (WT), i.e. parental microorganism and transformed strain carrying plasmid pMTL85246-GroESL were challenged with different concentrations of ethanol (FIG. 8).
(§4) Growth experiments in triplicates were carried out in 50 ml PETC media (Table 1) in serum bottles sealed with rubber stoppers and 30 psi steel mill gas (collected from New Zealand Steel site in Glenbrook, NZ; composition: 44% CO, 32% N2, 22% CO2, 2% H2) in the headspace as sole energy and carbon source. […] All cultures were inoculated to the same optical density using the same pre-culture for either wild-type (parental) or transformed strain. Changes in biomass were measured spectrophotometrically at 600 nm until growth ceased. The maximum biomass of each culture was compared with the unchallenged culture.

The test system of assay [5] is C. autoethanogenum DSM23693 transformed strain carrying plasmid pMTL85246-GroESL. Particulars: PETC media, 30 psi steel mill gas, biomass at 600 nm. The protocol: as §3, §4
The test system of assay [6] is Clostridium ljungdahlii DSM13583 pMTL83156-grpE-dnaK-dnaJ transformants.
Assay [7] concerns Zymomonas mobilis or Lactococcus strains. Particulars: cited from earlier work.
Assay [8] deals with Clostridium ljungdahlii DSM13583 pMTL83156-groESL transformants.
Assay [9] has as its system Clostridium ljungdahlii pMTL83155-groESL (phosphotransacetylase promoter). Particulars: construct with the phosphotransacetylase/acetate kinase operon promoter. The protocol: In addition, the effect of different promoter sequences was evaluated. The two strong C. autoethanogenum promoters of pyruvate:ferredoxin oxidoreductase and phosphotransacetylase/acetate kinase operon were used.

Assay [10] has as its system C. autoethanogenum DSM10061 pMTL83156-grpE-dnaK-dnaJ transformant. Particulars: 5 g/L, 10 g/L and 25 g/L ethanol, up to 102 h post inoculation. The protocol:
(§5) Anaerobic ethanol was administered at 12 hour post inoculation.
(§6) The experiment was first conducted as described above using PETC medium and autotrophic conditions with CO as substrate (FIG. 16a) and afterwards repeated using a different growth medium and heterotrophic conditions with fructose as substrate to rule out the effect of the growth media and substrate (FIG. 16b). A plasmid control was included. […] For ethanol challenge assay, 500 μL of two day old cultures were inoculated into each of five 60 mL serum bottles containing 20 mL of selective MMYF medium and incubated at 37° C. without agitation. […] Static incubation at 37° C. was allowed for 80-100 hours and the growth was monitored by measuring the optical density at a wavelength of 600 nm using Jenway 7300 spectrophotometer. Microscope examinations were routinely carried out.
The experiment was first conducted as described above using PETC medium and autotrophic conditions with CO as substrate (FIG. 16a) and afterwards repeated using a different growth medium and heterotrophic conditions with fructose as substrate to rule out the effect of the growth media and substrate (FIG. 16b). A plasmid control was included. […] Static incubation at 37° C. was allowed for 80-100 hours and the growth was monitored by measuring the optical density at a wavelength of 600 nm using Jenway 7300 spectrophotometer. […]

Assay [11] has as its system Clostridium ljungdahlii DSM13583 pMTL83157 plasmid control.
Assay [12] concerns C. autoethanogenum DSM10061 chaperone over-expressing (pMTL83156-groESL) transformants. The conditions noted are these: for OD600 reached: 37 h post inoculation, MMYF medium. The procedure:
as §6
(§7) The experiment was first conducted as described above using PETC medium and autotrophic conditions with CO as substrate (FIG. 16a) and afterwards repeated using a different growth medium and heterotrophic conditions with fructose as substrate to rule out the effect of the growth media and substrate (FIG. 16b). A plasmid control was included. Both plasmid control (pMTL83157) transformants and chaperone over-expressing (pMTL83156-groESL) transformants were cultured anaerobically in MMYF medium supplemented with freshly prepared 7.5 μg/mL thiamphenicol (final concentration). For ethanol challenge assay, 500 μL of two day old cultures were inoculated into each of five 60 mL serum bottles containing 20 mL of selective MMYF medium and incubated at 37° C. without agitation. […] Static incubation at 37° C. was allowed for 80-100 hours and the growth was monitored by measuring the optical density at a wavelength of 600 nm using Jenway 7300 spectrophotometer. Microscope examinations were routinely carried out.

Assay [13] concerns C. autoethanogenum DSM10061 plasmid control (pMTL83157) transformants. Description: microbe, parasite or virus in culture. The procedure:
as §5, §6, §7

The subject of assay [14] is Two species of the genus Clostridium. The conditions noted are these: cited from earlier work.
For assay [15], the system named is Clostridium acetobutylicum overproducing GroESL. The conditions noted are these: overproduction of GroESL; cited from earlier work.
Where [16] appears, read: 50 g/L ethanol, serum bottle studies.
Setting [17] is: 5 g/L ethanol added after 12 hours, 66 hours.
[18] abbreviates: Clostridium autoethanogenum, DSM10061, read-out: OD600 inhibition (% reduction in OD600 relative to unchallenged culture).

By inhibition is commonly meant the share of the control response that was lost under treatment. Turning to `CCO` [ethanol], the “growth in presence of ethanol” value in assay [1] is listed as “none of the strains was able to grow”; in assay [2] (25 g/L ethanol), “unable to grow”; in assay [2] (setting [16]), “none of the strains was able to grow”; in assay [3] (setting [16]), “none of the strains was able to grow”; in assay [12] (25 g/L ethanol), “able to grow”; in [12] (50 g/L ethanol), “able to grow”. For the same compound, the “natural tolerance to ethanol” value in assay [3] (25 g/L ethanol) was “tolerant”. Moreover, in assay [3] (serum bottles, PETC medium, 37° C., 30 psi steel mill gas), the “ethanol concentration at which growth was inhibited” value was 10-20 g/l. Also, the maximum tolerated ethanol in the assay with majority of bacteria is given as 4-7%. Further, in assay [4] (45 g/l ethanol, biomass at 600 nm), the “doubling of culture when challenged with ethanol” value was found to be 0.39 doubling. The “biomass change when ethanol was added” value in [4] (60 g/l ethanol) is reported as “biomass even dropped”. In [4] (60 g/l ethanol), the “growth after addition of ethanol” value is “ceased”. For the same compound, the “doublings of culture when challenged with ethanol” value came out at 2.14 times in assay [5] (45 g/l ethanol) and 1.27 times in [5] (60 g/l ethanol). In addition, the “OD600 relative to plasmid controls” value in assay [6] is on record as “higher OD600 than plasmid controls”. For the same compound, the “time to reach OD600 of ~0.6 relative to plasmid control” value in assay [6] and in [8] was “significantly earlier” throughout. Further, the OD600 is listed as 1.12 in assay [6] (setting [17]); 1.15 in assay [6] (10 g/L ethanol added after 12 hours, 114 h post inoculation); 0.48 in assay [6] (25 g/L ethanol added after 12 hours, 36 hrs. post inoculation); 0.97 in assay [8] (setting [17]); 0.42 in assay [8] (25 g/L ethanol added after 12 hours, 36 h post inoculation); about 0.66 in [11] (setting [17]). Further, the OD600 was 0.67 in assay [11] (10 g/L ethanol added after 12 hours, 101 h post inoculation) and 0.20 in [11] (25 g/L ethanol added after 12 hours, 30 h post inoculation). Further, the “increase in OD600” value in assay [6] (50 g/L ethanol challenge at 12 hour post inoculation) is reported as 0.096. Moreover, the tolerated ethanol entry in assay [7] was “more than 10%”. The “change in OD600” value in [8] and in assay [11] was “reduction in OD600” each time. Further, the “ethanol tolerance over the wild-type” value in assay [8] was “significantly enhanced”; in [9], “didn't enhance ethanol tolerance”. Also, the “growth inhibition by ethanol challenge relative to plasmid control” value in assay [10] is “significantly less inhibited”. The OD600 reached is listed as 0.38 in assay [12] (5 g/L ethanol added 12 hour post inoculation); 0.31 in assay [12] (25 g/L ethanol added 12 hour post inoculation); 0.29 in assay [13] (25 g/L ethanol added 12 hour post inoculation, 78 h post inoculation, MMYF medium). The “growth relative to plasmid control” value in [12] (5 g/L, 10 g/L and 25 g/L ethanol at 12 hour post inoculation) is listed as “significantly earlier growth”. For the same compound, in assay [12] (all levels of ethanol challenge), the “biomass relative to plasmid control” value is given as “higher biomass”. Moreover, the “time to exceed OD600 0.25” value in assay [13] (5 g/L ethanol added 12 hour post inoculation, MMYF medium) is listed as “more than 102 h”. The inhibition at 10000 µg/mL in assay [13] (setting [18]) was determined as 74%. Moreover, the inhibition at 25000 µg/mL in assay [13] (setting [18]) stood at 79%.

With butanol, the “tolerated butanol level (hardly exceeded)” value in the assay with majority of bacteria is reported as 1.5-2.5%. Further, the tolerated butanol level entry in assay [14] is listed as “around 1.5%”. Further, the “reduction of inhibition by butanol challenge compared to the wild-type” value in [15] is “up to 85%”.
